Data taken from patent US12070457B2, “Substituted pyridines, pyridazines, pyrimidines, and 1,2,3-triazines as bruton's tyrosine kinase inhibitors” (HUTCHISON MEDIPHARMA LIMITED, priority 2020, dated 2024).

What was measured:
[1] = Stability test in liver microsomes (mouse); format: in vitro ADME; conditions: 1 μM compound
Method in brief: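 Compound (1 μM final) incubated 30 min at 37 °C with male CD-1 mouse or male SD rat pooled liver microsomes (0.5 mg/mL) in 50 mM phosphate buffer with 3 mM MgCl2, 1 mM EDTA and NADPH-regenerating system. Quenched with acetonitrile containing internal standard; LC-MS/MS gives percent remaining relative to 0-min sample.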

[2] = test system: TMD8 subcutaneous xenograft (human diffuse large B-cell lymphoma cells); assay: In vivo efficacy in TMD8 subcutaneous xenograft model; set-up: species or system mouse; conditions: 10 mg/kg and 30 mg/kg vs Ibrutinib 50 mg/kg and GDC-0853 10 mg/kg
Procedure: Example 7 Evaluation of In Vivo Efficacy of the Compound of the Present Invention in TMD8 Subcutaneous Xenograft Model
Objects: To investigate the anti-tumor activity of compound 19 in TMD8 subcutaneous xenograft model in nude mice.
Methods: Human diffuse large B-cell lymphoma cells TMD8 (acquired under license from Tokyo Medical and Dental University) were cultured in RPMI1640 medium containing 10% fetal bovine serum. 1×10^7 tumor cells suspended in RPMI1640 medium mixed well with Matrigel (purchased from Corning, USA) at 1:1 were implanted subcutaneously on the right flank of each male Balb/c nude mouse (Shanghai Lingchang Biotechnology Co., Ltd.), pretreated with cyclophosphamide (at a dose of 200 mg/kg, intraperitoneal injection 24 h before cell inoculation). […] All drugs were administered by oral gavage, once a day, and the vehicle control group was administered orally with 0.5% hydroxypropyl methylcellulose solution (pH=3).
Tumor volumes (tumor volume=0.5× long diameter× short diameter^2) and body weights of the mice were measured regularly. The tumor volume change and body weight were statistically analyzed, with p<0.05 considered statistically significant, and p<0.01 as extremely statistically significant.
The anti-tumor activity was evaluated by tumor growth inhibition. […]

Compound: C[C@H]1CN(C2COC2)CCN1c1ccc(Nc2cc(-c3ccnc(-n4ccn5c6c(cc5c4=O)CC(C)(C)C6)c3CO)cn(C)c2=O)nc1 [Compound 19]
- stability in mouse liver microsomes compared with reference GDC-0853 ([1]; 0.5 mg/mL liver microsomes, 30 minutes incubation): better than that of the reference GDC-0853
- MLM, percentage of remaining compound after 30 minutes of incubation ([1]; mouse liver microsomes, 30 min): 91.8%
- anti-tumor efficacy compared with Ibrutinib or GDC-0853 [2]: statistically significant superior efficacy to Ibrutinib or GDC-0853
